One assay deals with T1, WNK1 (1–491) (Homo sapiens, UniProt Q9H4A3).
T1 construct: different lengths of WNK1 truncations (1–491, 1–190, 191–491, 491–2382); expressed in transfected cells; host or cells: HEK293T
The assay can be described thus: MST, EGFP-tagged WNK1 truncation 1–491. In kind it is binding. The following applies: WNK1 1–491, 15 min, HEK293T lysates. An excerpt:
(§1) To further validate these findings, we constructed GFP‐tagged fusion proteins with different lengths of WNK1 truncations (1–491, 1–190, 191–491, 491–2382) based on the WNK1 domains (Figure 3E) and analyzed their binding capacity with bilirubin using MST analysis.^[ [29] ^]
(§2) All WNK1 clones were derived from the original untagged hWNK1 cDNA (NM_018979), which was modified and subcloned into the pcDNA3.1, referred to as “full‐length WNK1” throughout this study. Truncated constructs, including 1–190aa, 191–491aa, 1–491aa, and 491–2382aa fragments, were generated by PCR using the full‐length template and subsequently ligated into linearized pcDNA3.1 vectors. WNK2 was obtained from Addgene Plasmid #24569, and WNK3 was obtained from Addgene Plasmid #81723. Both were subjected to base modifications and cloned into pcDNA3.1. The WNK4 clone was derived from hWNK4 cDNA (NM_032387.5), modified, and subcloned into the pCMV3‐C‐GFPSpark vector.
(§3) In HEK293T cells, proteins tagged with green fluorescent protein (GFP) were expressed. The cells were lysed using the M‐PER Mammalian Protein Extraction Reagent (cat. no. 78505, Thermo Scientific) supplemented with protease inhibitors. Lysates were centrifuged at 12000 × g for 15 min at 4 °C, and the supernatant containing proteins was diluted 10‐fold with 1x PBST. […]

In a further assay the target is T2, WNK1 (1–190) (Homo sapiens, UniProt Q9H4A3).
T2 construct: different lengths of WNK1 truncations (1–491, 1–190, 191–491, 491–2382); expressed in transfected cells; host or cells: HEK293T
T2 sequence (Q9H4A3 1-190): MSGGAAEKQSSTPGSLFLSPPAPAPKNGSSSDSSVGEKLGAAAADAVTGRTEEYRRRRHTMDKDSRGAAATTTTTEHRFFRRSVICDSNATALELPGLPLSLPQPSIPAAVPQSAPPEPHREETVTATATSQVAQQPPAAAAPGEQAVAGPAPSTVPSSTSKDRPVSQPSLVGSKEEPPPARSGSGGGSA
The assay can be described thus: MST, EGFP-tagged WNK1 truncation 1–190. In kind it is binding. The following applies: WNK1 1–190 (non-kinase segment), 15 min, HEK293T lysates.
Excerpt: as §1, §2, §3

In a further assay the target is T3, WNK1 (Homo sapiens, UniProt Q9H4A3).
T3 construct: endogenous in cells; host or cells: SH-SY5Y
T3 sequence (Q9H4A3 whole entry): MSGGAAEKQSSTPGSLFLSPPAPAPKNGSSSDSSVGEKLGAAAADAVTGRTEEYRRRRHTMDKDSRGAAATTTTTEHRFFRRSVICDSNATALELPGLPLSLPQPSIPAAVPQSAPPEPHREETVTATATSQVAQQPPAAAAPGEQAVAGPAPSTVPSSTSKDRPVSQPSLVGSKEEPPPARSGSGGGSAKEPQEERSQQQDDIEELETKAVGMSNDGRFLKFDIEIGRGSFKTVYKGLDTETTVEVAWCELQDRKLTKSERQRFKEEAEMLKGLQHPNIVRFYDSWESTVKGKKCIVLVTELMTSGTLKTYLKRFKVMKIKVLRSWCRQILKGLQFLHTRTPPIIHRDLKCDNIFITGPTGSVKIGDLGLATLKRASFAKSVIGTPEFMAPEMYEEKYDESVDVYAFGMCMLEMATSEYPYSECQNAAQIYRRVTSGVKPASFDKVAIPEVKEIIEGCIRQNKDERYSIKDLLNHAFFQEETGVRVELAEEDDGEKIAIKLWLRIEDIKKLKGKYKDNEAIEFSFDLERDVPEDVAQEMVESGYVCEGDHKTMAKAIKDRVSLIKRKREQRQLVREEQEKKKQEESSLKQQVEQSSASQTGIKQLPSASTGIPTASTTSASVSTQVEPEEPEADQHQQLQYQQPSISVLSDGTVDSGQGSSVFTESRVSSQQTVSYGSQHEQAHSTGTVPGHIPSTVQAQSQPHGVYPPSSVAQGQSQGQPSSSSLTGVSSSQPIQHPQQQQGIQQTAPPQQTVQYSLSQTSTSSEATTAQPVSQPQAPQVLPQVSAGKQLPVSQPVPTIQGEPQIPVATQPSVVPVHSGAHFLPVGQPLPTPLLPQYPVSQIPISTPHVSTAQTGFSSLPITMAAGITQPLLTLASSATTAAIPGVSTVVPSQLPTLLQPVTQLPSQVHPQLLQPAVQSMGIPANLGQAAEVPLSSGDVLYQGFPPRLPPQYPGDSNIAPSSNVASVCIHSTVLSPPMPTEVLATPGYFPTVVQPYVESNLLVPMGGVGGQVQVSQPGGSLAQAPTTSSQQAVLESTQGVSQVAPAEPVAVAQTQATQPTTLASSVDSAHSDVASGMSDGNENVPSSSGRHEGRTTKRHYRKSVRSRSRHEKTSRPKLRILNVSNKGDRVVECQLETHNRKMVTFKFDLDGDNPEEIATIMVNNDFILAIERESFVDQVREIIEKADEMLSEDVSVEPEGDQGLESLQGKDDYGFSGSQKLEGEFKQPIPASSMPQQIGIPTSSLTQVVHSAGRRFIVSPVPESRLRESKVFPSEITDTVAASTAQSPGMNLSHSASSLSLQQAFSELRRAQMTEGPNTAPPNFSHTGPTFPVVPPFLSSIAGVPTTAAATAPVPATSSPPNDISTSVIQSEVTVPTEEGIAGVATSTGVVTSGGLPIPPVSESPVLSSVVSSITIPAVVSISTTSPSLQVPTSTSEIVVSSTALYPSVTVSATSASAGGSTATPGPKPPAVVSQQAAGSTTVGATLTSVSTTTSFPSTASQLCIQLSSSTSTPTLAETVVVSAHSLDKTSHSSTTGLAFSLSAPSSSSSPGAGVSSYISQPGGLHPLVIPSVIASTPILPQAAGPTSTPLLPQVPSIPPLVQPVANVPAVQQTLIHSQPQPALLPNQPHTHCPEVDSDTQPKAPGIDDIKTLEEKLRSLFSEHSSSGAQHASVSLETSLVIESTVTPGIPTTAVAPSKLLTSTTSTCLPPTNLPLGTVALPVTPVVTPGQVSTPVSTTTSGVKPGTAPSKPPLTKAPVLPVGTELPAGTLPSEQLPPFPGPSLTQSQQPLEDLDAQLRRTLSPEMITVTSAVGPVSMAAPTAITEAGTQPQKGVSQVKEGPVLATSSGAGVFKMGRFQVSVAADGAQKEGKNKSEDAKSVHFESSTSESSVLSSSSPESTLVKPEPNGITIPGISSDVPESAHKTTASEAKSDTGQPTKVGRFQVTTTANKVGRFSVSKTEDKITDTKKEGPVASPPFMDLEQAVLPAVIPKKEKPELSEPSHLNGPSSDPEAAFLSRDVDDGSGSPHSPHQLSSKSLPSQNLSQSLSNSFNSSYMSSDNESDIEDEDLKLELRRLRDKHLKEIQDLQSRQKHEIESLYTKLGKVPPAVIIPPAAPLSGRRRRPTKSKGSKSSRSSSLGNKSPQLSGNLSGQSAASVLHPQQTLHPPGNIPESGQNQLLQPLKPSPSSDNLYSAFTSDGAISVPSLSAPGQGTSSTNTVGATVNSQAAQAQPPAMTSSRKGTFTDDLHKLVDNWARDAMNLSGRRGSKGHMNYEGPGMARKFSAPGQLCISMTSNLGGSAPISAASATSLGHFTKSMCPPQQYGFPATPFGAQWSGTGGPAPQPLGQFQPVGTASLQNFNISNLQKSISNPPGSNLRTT
The assay can be described thus: CETSA-Western blotting in SH-SY5Y cells. The assay is classed as cell-based. The following applies: 6 µM in serum-free medium vs DMSO, denaturation at different temperatures, soluble fraction. The method, then:
To validate these findings, SH‐SY5Y cells were incubated in a serum‐free medium with bilirubin (6 µM) or an equivalent amount of DMSO as the control, followed by protein denaturation at different temperatures (Figure 1A).
Cells or tissues were lysed by grinding in RIPA buffer (cat. no. PC101; Epizyme Biotech) supplemented with a protease inhibitor cocktail (cat. no. 5872S; Cell Signaling Technology) at 4 °C. The lysate was subsequently centrifuged at 16000 × g for 30 min at 4 °C and the resulting supernatant was collected. The total protein concentration was determined using the Pierce BCA Protein Assay Kit (cat. no. 23 225, Thermo Fisher Scientific). The samples were denatured in a Protein Sample Loading Buffer (cat. no. LT101; Epizyme Biotech) at 95 °C and subjected to SDS‐polyacrylamide gel electrophoresis. Following electrophoresis, the proteins were transferred onto a nitrocellulose membrane (cat. no. HATF00010; Millipore) using a transfer buffer composed of 25 mM Tris, 190 mM glycine, and 20% methanol. Membranes were blocked with blocking buffer for western blotting (cat. no. P0252; Beyotime Biotechnology) at room temperature for 15 min, followed by overnight incubation with the primary antibody at 4 °C. After primary antibody incubation, the membranes were washed and incubated with secondary antibody at room temperature for 1 h. […]
Background: A western blot detects proteins with antibodies after separation by electrophoresis.

In a further assay the test system is phospho-S940 KCC2. The assay can be described thus: Western blotting of phospho-S940 KCC2 in hippocampal tissue. The assay is classed as cell-based, mouse. From the text:
Since bilirubin‐induced activation of WNK1 kinase activity increases [Cl⁻]i in neurons, we sought to elucidate the downstream effector proteins of WNK1 that are involved in this process. Neuronal [Cl⁻]i is primarily regulated by the Cl⁻‐K⁺ symporter KCC2, with additional modulation by factors such as the Na⁺‐K⁺‐Cl⁻ co‐transporter NKCC1, GABAA receptors, and glycine receptors (GlyR), all of which contribute to [Cl⁻]i homeostasis.^[ [31] ^] To investigate the mechanism underlying bilirubin‐induced changes in [Cl⁻]i, we selectively targeted these proteins using pharmacological inhibitors (VU0463271 for KCC2, bumetanide for NKCC1, bicuculline for GABAA receptors, and strychnine for GlyR) and activated KCC2 using CLP257.^[ [35], [36] ^] […]
Cells or tissues were lysed by grinding in RIPA buffer (cat. no. PC101; Epizyme Biotech) supplemented with a protease inhibitor cocktail (cat. no. 5872S; Cell Signaling Technology) at 4 °C. […] The total protein concentration was determined using the Pierce BCA Protein Assay Kit (cat. no. 23 225, Thermo Fisher Scientific). […]

Another assay addresses T4, hWNK2 (Homo sapiens, UniProt Q9Y3S1).
T4 construct: host or cells: HEK293T
The assay can be described thus: MST, WNK kinase family member WNK2. The assay is classed as binding. The method, then:
(§4) To validate the direct binding of bilirubin to WNK1, we performed a Microscale Thermophoresis (MST) analysis, which assesses the binding capacity of a compound by measuring the movement of proteins over a microscopic temperature gradient.^[ [26], [27] ^] We overexpressed full‐length WNK1 fused with Green Fluorescent Protein (GFP) in HEK‐293 cells, incubated the lysates with bilirubin at varying dilutions, and subjected them to precise MST measurements in capillaries. […] Furthermore, biliverdin, a structurally similar intermediate product generated before bilirubin formation, was used as a control.
as §2
(§5) In HEK293T cells, proteins tagged with green fluorescent protein (GFP) were expressed. […]

The next assay has as its target T5, full-length hWNK1 (Homo sapiens, UniProt Q9H4A3).
T5 construct: We overexpressed full‐length WNK1 fused with Green Fluorescent Protein (GFP); expressed in transfected cells; host or cells: HEK293T
Briefly: MicroScale Thermophoresis (MST), EGFP-tagged full-length WNK1 in HEK293T cell lysates. In kind it is binding. To be noted: 15 min incubation, lysates of EGFP-WNK1 expressing HEK293T cells. The procedure: as §4, §2, §5
In general terms: Microscale thermophoresis detects binding through changes in fluorescence in a small temperature gradient.

T5 sequence (Q9H4A3 whole entry, the tested form may be a part): as the sequence (Q9H4A3 whole entry) above
T4 sequence (Q9Y3S1 whole entry): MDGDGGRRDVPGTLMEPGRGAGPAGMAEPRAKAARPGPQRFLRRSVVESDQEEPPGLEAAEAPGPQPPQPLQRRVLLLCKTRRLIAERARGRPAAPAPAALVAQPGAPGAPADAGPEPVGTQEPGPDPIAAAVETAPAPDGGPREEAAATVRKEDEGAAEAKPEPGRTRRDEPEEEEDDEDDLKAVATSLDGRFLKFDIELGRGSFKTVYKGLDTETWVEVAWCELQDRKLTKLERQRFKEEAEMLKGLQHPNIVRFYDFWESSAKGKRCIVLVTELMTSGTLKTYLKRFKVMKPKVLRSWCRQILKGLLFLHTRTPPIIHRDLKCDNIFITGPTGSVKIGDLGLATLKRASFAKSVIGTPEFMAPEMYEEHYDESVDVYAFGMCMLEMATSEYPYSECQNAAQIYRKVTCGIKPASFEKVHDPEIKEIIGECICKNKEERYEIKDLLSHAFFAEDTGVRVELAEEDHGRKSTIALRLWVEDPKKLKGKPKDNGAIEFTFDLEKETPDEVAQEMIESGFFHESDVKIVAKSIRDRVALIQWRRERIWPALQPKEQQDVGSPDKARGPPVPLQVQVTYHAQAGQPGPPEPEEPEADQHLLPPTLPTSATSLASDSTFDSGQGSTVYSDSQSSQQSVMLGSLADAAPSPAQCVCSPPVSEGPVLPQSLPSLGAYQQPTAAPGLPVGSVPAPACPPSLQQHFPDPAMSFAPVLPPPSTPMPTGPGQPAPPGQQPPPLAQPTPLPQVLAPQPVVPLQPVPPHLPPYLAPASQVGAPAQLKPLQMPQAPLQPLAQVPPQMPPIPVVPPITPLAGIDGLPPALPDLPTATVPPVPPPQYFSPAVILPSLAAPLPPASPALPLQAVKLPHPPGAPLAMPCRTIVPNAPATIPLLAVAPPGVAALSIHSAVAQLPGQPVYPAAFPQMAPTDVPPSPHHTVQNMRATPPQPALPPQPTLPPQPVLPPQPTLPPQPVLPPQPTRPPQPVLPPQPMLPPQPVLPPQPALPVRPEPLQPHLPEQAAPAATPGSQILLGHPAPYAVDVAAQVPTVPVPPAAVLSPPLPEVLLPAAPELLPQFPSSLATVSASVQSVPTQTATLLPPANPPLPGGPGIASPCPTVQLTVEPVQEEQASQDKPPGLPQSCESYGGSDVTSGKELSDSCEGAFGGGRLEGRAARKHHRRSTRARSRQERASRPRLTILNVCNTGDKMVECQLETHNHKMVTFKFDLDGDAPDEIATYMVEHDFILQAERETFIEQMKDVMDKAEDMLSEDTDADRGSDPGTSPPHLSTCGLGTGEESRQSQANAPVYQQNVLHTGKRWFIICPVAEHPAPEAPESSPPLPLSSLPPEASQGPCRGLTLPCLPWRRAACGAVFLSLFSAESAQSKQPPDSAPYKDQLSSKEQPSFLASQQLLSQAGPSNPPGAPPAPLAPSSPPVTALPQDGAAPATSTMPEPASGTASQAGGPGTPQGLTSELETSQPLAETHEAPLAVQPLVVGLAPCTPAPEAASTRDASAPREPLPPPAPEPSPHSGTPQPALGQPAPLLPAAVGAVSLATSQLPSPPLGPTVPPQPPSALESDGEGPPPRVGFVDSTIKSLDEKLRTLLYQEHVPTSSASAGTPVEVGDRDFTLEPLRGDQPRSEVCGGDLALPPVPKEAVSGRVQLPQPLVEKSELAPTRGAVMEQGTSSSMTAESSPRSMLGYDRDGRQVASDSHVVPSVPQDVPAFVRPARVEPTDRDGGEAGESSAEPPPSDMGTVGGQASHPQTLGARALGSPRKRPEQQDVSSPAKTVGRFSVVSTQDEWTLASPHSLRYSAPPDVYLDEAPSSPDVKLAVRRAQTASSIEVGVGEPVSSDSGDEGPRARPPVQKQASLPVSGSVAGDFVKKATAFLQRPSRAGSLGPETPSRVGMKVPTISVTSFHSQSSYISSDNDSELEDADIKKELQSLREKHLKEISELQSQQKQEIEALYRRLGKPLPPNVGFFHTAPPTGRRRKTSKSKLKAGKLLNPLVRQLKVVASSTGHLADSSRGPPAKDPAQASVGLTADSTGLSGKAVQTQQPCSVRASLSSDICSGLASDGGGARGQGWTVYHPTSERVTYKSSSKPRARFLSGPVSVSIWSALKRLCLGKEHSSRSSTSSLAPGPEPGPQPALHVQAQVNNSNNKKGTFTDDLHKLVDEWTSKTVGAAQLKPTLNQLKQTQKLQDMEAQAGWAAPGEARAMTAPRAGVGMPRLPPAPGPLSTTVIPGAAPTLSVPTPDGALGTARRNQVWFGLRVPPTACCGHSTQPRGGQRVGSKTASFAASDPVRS

With `C=CC1=C(C)/C(=C/c2[nH]c(Cc3[nH]c(/C=C4\NC(=O)C(C)=C4C=C)c(C)c3CCC(=O)O)c(CCC(=O)O)c2C)NC1=O` [bilirubin, Bilirubin], the Kd worked out at 315 nM at WNK1 (1–491), 1830 nM at WNK1 (1–190), 530 nM on hWNK2 and 67.2 nM at full-length hWNK1. The “thermal stability of WNK1” value at WNK1 is “enhanced thermal stability”. The “relative expression of phospho-S940 KCC2” value in the assay on phospho-S940 KCC2 (Wnk1fl/fl mice hippocampal tissue) is “decrease”; in the assay with phospho-S940 KCC2 (Wnk1fl/fl,Thy1-Cre mice hippocampal tissue) it was “no such effect”.

As a reminder, the Kd is the concentration at which binding is half-saturated. A lower Kd goes with higher affinity.

The record behind these values is article PMC12362796, “Bilirubin Targeting WNK1 to Alleviate NLRP3‐Mediated Neuroinflammation” (Advanced Science, 2025).
